Measurements published in patent publication US20070275968A1, “Substituted Biphenyl Derivative” (priority 2004, published 2007).

test system: NRK-49F cells; test: Collagen synthesis inhibition test; format: cell-based; details: 25 ng/mL TGF-β added, cultured about 44 hr, 3H-labeled proline taken into collagen, no TGF-β = 100% inhibition, no test compound = 0% inhibition, read-out: Collagen synthesis inhibiting activity IC50
Method: Collagen Synthesis Inhibition Test
Collagen synthesis inhibiting activity was evaluated by the following assay.
NRK-49F cells (Dainippon Pharmaceutical) are seeded into a 96-well plate. After becoming confluent, the medium is changed to a serum-free Dulbecco's modified MEM medium (Invitrogen) containing 5 μg/mL insulin, 5 μg/mL transferin, and 5 ng/mL selenious acid. One day later, the medium is changed to a serum-free Dulbecco's modified MEM medium (80 μl) containing 10 ng/mL IGF-II (Sigma) and 50 μg/mL L-ascorbic acid (Sigma), and a ten times concentration of a test compound (10 μl) is added thereto. Thirty minutes later, 25 ng/mL TGF-β (R&D System: 10 μL) is added to the medium, and the cells are cultured for about 44 hr. Twenty four hours before the termination of the culturing, ^3H-labeled proline (Amersham: 1 μCi) is added so as to be taken into collagen in the cells. When the culturing is terminated, 30% trichloroacetic acid (50 μL) is added to the medium. After leaving for 20 min, proteins are precipitated by centrifugation at 3000 rpm for 10 min. The supernatant is removed, and the residue is twice washed with 200 μL of a washing solution (ethanol:ether=3:1). The precipitate is air-dried, and the washing solution is sufficiently removed. After addition of 60 μL of a collagenase solution (2 mg/mL collagenase VII (Sigma), 50 mM Tris-HCl (pH 7.4), 5 mM CaCl2), the resulting mixture is treated at 37° C. for 2 hr to decompose collagen. Then, 90 μL of 15% trichloroacetic acid and 5% tannic acid are added thereto. The resulting mixture is left for 20 min and then centrifuged at 3000 rpm for 10 min. The supernatant (50 μL) is transferred to LumaPlate (PerkinElmer Lifescience) and is air-dried. Then, the amount of ^3H is measured by a Top Count.

Question: For Cc1cccc(-c2nc(C(C)C)[nH]c2-c2ccc(F)c(-c3ccc(CN4CCOCC4)cc3)c2)n1 [Example 109], which IC50 is on record?
Answer: 130 nM

Question: With Cc1cccc(-c2cn(C(C)C)nc2-c2ccc(F)c(-c3cn[nH]c3)c2)n1 [Example 112, 2-{5-[4-Fluoro-3-(1H-pyrazol-4-yl)phenyl]-2-isopropyl-1H-pyrazol-4-yl}-6-methylpyridine] as the compound, how does the IC50 read?
Answer: 30 nM

same assay, conditions: Rattus norvegicus, 25 ng/mL TGF-β added, cultured about 44 hr, 3H-labeled proline taken into collagen, no TGF-β = 100% inhibition, no test compound = 0% inhibition, read-out: Collagen synthesis inhibiting activity IC50

Question: Which IC50 does the source give for Cc1cccc(-c2[nH]c(C(C)C)nc2-c2cccc(-c3ccc(S(C)(=O)=O)cc3)c2)n1 [Example 17, 2-{2-Isopropyl-4-[4′-(methylsulfonyl)-1,1′-biphenyl-3-yl]-1H-imidazol-5-yl}-6-methylpyridine] here?
Answer: 350 nM

Question: Which IC50 does the source give for Cc1cccc(-c2[nH]c(C(C)C)nc2-c2cccc(-c3ccc(C(=O)NN4CCN(C)CC4)cc3)c2)n1 [Example 48, N-(4-Methylpiperazin-1-yl)-4-{3-[2-isopropyl-5-(6-methylpyridin-2-yl)-1H-imidazol-4-yl]phenyl}benzamide] here?
Answer: 1490 nM

Question: With Cc1cccc(-c2[nH]c(C(C)C)nc2-c2ccc(F)c(-c3ccc(C(=O)NC4CCOCC4)cc3)c2)n1 [Example 65, N-(Tetrahydropyran-4-yl)-4-{2-fluoro-5-[2-isopropyl-5-(6-methylpyridin-2-yl)-1H-imidazol-4-yl]phenyl}benzamide] as the compound, how does the IC50 read?
Answer: 520 nM

Question: Which IC50 does the source give for Cc1cccc(-c2nc(C(C)C)[nH]c2-c2ccc(F)c(-c3cnn(C)c3)c2)n1 [Example 110, 2-{5-[4-Fluoro-3-(1-methyl-1H-pyrazol-4-yl)phenyl]-2-isopropyl-1H-imidazol-4-yl}-6-methylpyridine] here?
Answer: 50 nM

Question: With Cc1cccc(-c2[nH]c(C(C)C)nc2-c2ccc(F)c(-c3ccc(OCCN4CCCCC4)cc3)c2)n1 [Example 117, 2-{4-[6-Fluoro-4′-(2-piperidin-1-ylethoxy)-1,1′-biphenyl-3-yl]-2-isopropyl-1H-imidazol-5-yl}-6-methylpyridine] as the compound, how does the IC50 read?
Answer: 1170 nM

Question: For Cc1cccc(-c2nc[nH]c2-c2ccc(F)c(-c3cnn(C)c3)c2)n1 [Example 121, 2-{5-[4-Fluoro-3-(1-methyl-1H-pyrazol-4-yl)phenyl]-1H-imidazol-4-yl}-6-methylpyridine], which IC50 is on record?
Answer: 10 nM

Question: For Cc1cccc(-c2[nH]c(C(C)C)nc2-c2ccc(F)c(-c3ccc4c(c3)CCS4(=O)=O)c2)n1 [Example 125, 2-{4-[3-(1,1-Dioxido-2,3-dihydro-1-benzothien-5-yl)-4-fluorophenyl]-2-isopropyl-1H-imidazol-5-yl}-6-methylpyridine], which IC50 is on record?
Answer: 230 nM

Question: With Cc1cccc(-c2[nH]c(C(C)C)nc2-c2ccc(F)c(-c3ccc(S(N)(=O)=O)cc3)c2)n1 [Example 127, 2′-Fluoro-5′-[2-isopropyl-5-(6-methylpyridin-2-yl)-1H-imidazol-4-yl]-1,1′-biphenyl-4-sulfonamide] as the compound, how does the IC50 read?
Answer: 790 nM

Question: Which IC50 does the source give for CNS(=O)(=O)c1ccc(-c2cc(-c3c[nH]nc3-c3cccc(C)n3)ccc2F)cc1 [Example 156, 2′-Fluoro-N-methyl-5′-[3-(6-methylpyridin-2-yl)-1H-pyrazol-4-yl]-1,1′-biphenyl-4-sulfonamide] here?
Answer: 100 nM

Question: Which IC50 does the source give for Cc1cccc(-c2n[nH]cc2-c2ccc(F)c(-c3cnn(CCO)c3)c2)n1 [Example 162, 2-(4-{2-Fluoro-5-[3-(6-methylpyridin-2-yl)-1H-pyrazol-4-yl]phenyl}-1H-pyrazol-1-yl)ethanol] here?
Answer: 30 nM

test system: not given; test: not given; details: not given

Question: Which melting point does the source give for Cc1cccc(-c2[nH]c(C(C)C)nc2-c2cccc(-c3ccc(S(C)(=O)=O)cc3)c2)n1 [Example 17, 2-{2-Isopropyl-4-[4′-(methylsulfonyl)-1,1′-biphenyl-3-yl]-1H-imidazol-5-yl}-6-methylpyridine] here?
Answer: 104 to 106 °C

Question: For Cc1cccc(-c2[nH]c(C(C)C)nc2-c2ccc(F)c(-c3ccc(C(=O)NC4CCOCC4)cc3)c2)n1 [Example 65, N-(Tetrahydropyran-4-yl)-4-{2-fluoro-5-[2-isopropyl-5-(6-methylpyridin-2-yl)-1H-imidazol-4-yl]phenyl}benzamide], which melting point is on record?
Answer: 130 to 132 °C

Question: With Cc1cccc(-c2nc(C(C)C)[nH]c2-c2ccc(F)c(-c3cnn(C)c3)c2)n1 [Example 110, 2-{5-[4-Fluoro-3-(1-methyl-1H-pyrazol-4-yl)phenyl]-2-isopropyl-1H-imidazol-4-yl}-6-methylpyridine] as the compound, how does the melting point read?
Answer: 77 to 97 °C

Question: Which melting point does the source give for Cc1cccc(-c2nc[nH]c2-c2ccc(F)c(-c3cnn(C)c3)c2)n1 [Example 121, 2-{5-[4-Fluoro-3-(1-methyl-1H-pyrazol-4-yl)phenyl]-1H-imidazol-4-yl}-6-methylpyridine] here?
Answer: 205 °C

Question: With Cc1cccc(-c2[nH]c(C(C)C)nc2-c2ccc(F)c(-c3ccc4c(c3)CCS4(=O)=O)c2)n1 [Example 125, 2-{4-[3-(1,1-Dioxido-2,3-dihydro-1-benzothien-5-yl)-4-fluorophenyl]-2-isopropyl-1H-imidazol-5-yl}-6-methylpyridine] as the compound, how does the melting point read?
Answer: 119 to 123 °C

Question: For Cc1cccc(-c2[nH]c(C(C)C)nc2-c2ccc(F)c(-c3ccc(S(N)(=O)=O)cc3)c2)n1 [Example 127, 2′-Fluoro-5′-[2-isopropyl-5-(6-methylpyridin-2-yl)-1H-imidazol-4-yl]-1,1′-biphenyl-4-sulfonamide], which melting point is on record?
Answer: 245 to 246 °C

Question: Which melting point does the source give for Cc1cccc(-c2n[nH]cc2-c2ccc(F)c(-c3ccc(N4CCN(C)CC4)cn3)c2)n1 [Example 188, 1-(6-{2-Fluoro-5-[3-(6-methylpyridin-2-yl)-1H-pyrazol-4-yl]phenyl}pyridin-3-yl)-4-methylpiperazine] here?
Answer: 97 °C

Question: Which melting point does the source give for Cc1cccc(-c2n[nH]cc2-c2ccc(F)c(-c3ccc(S(C)(=O)=O)cc3)c2)n1 [Example 191, 2-{4-[6-Fluoro-4′-(methylsulfonyl)-1,1′-biphenyl-3-yl]-1H-pyrazol-3-yl}-6-methylpyridine] here?
Answer: 100 to 102 °C

Question: For Cc1cccc(-c2n[nH]cc2-c2ccc(F)c(-c3ccc(NC(=O)NN4CCOCC4)cc3)c2)n1 [Example 192, N-{2′-Fluoro-5′-[3-(6-methylpyridin-2-yl)-1H-pyrazol-4-yl]-1,1′-biphenyl-4-yl}-N′-morpholine-4-ylurea], which melting point is on record?
Answer: 131 to 133 °C

Question: For Cc1cccc(-c2n[nH]cc2-c2ccc(F)c(-c3ccc[nH]3)c2)n1 [Example 193, 2-{4-[4-Fluoro-3-(1H-pyrrol-2-yl)phenyl]-1H-pyrazol-3-yl}-6-methylpyridine], which melting point is on record?
Answer: 141 to 142 °C

Question: For Cc1cccc(-c2n[nH]cc2-c2ccc(F)c(-c3ccc(O)cc3)c2)n1 [Example 197, 2′-Fluoro-5′-[3-(6-methylpyridin-2-yl)-1H-pyrazol-4-yl]-1,1′-biphenyl-4-ol], which melting point is on record?
Answer: 72 to 74 °C

Question: With Cc1cccc(-c2nn(C)cc2-c2ccc(F)c(-c3ccc(S(C)(=O)=O)cc3)c2)n1 [Example 199, 2-{4-[6-Fluoro-4′-(methylsulfonyl)-1,1′-biphenyl-3-yl]-1-methyl-1H-pyrazol-3-yl}-6-methylpyridine] as the compound, how does the melting point read?
Answer: 66 to 67 °C

Question: For Cc1cccc(-c2nn(C(C)C)cc2-c2ccc(F)c(-c3ccc(S(C)(=O)=O)cc3)c2)n1 [Example 200, 2-{4-[6-Fluoro-4′-(methylsulfonyl)-1,1′-biphenyl-3-yl]-1-isopropyl-1H-pyrazol-3-yl}-6-methylpyridine], which melting point is on record?
Answer: 172 to 173 °C

Question: With Cn1cc(-c2cc(-c3c[nH]nc3-c3ccccn3)ccc2F)cn1 [Example 201, 2-{4-[4-Fluoro-3-(1-methyl-1H-pyrazol-4-yl)phenyl]-1H-pyrazol-3-yl}pyridine] as the compound, how does the melting point read?
Answer: 134 to 136 °C

Question: Which melting point does the source give for CS(=O)(=O)c1ccc(-c2cc(-c3c[nH]nc3-c3cccc(C4CC4)n3)ccc2F)cc1 [Example 203, 2-Cyclopropyl-6-{4-[6-fluoro-4′-(methylsulfonyl)-1,1′-biphenyl-3-yl]-1H-pyrazol-3-yl}pyridine] here?
Answer: 102 to 104 °C

Question: Which melting point does the source give for NS(=O)(=O)c1ccc(-c2cc(-c3c[nH]nc3-c3cccc(C4CC4)n3)ccc2F)cc1 [Example 204, 5′-[3-(6-Cyclopropylpyridin-2-yl)-1H-pyrazol-4-yl]-2′-fluoro-1,1′-biphenyl-4-sulfonamide] here?
Answer: 225 to 226 °C

Question: For Cc1cccc(-c2n[nH]cc2-c2ccc(F)c(-c3cc[nH]n3)c2)n1 [Example 205, 2-{4-[4-Fluoro-3-(1H-pyrazol-3-yl)phenyl]-1H-pyrazol-3-yl}-6-methylpyridine], which melting point is on record?
Answer: 105 to 108 °C

Question: With Cc1cccc(-c2n[nH]cc2-c2ccc(F)c(-c3c[nH]c(C(O)CO)n3)c2)n1 (stereo not drawn) [Example 207, 1-(4-{2-Fluoro-5-[3-(6-methylpyridin-2-yl)-1H-pyrazol-4-yl]phenyl}-1H-imidazol-2-yl)ethane-1,2-diol] as the compound, how does the melting point read?
Answer: 125 to 127 °C

Question: With Cc1cccc(-c2n[nH]cc2-c2ccc(F)c(-c3c[nH]c(CO)n3)c2)n1 [Example 208, (4-{2-Fluoro-5-[3-(6-methylpyridin-2-yl)-1H-pyrazol-4-yl]phenyl}-1H-imidazol-2-yl)methanol] as the compound, how does the melting point read?
Answer: 243 to 246 °C

Question: With Cc1cccc(-c2n[nH]cc2-c2ccc(F)c(-c3c[nH]c(CC(C)(C)O)n3)c2)n1 [Example 210, 1-(4-{2-Fluoro-5-[3-(6-methylpyridin-2-yl)-1H-pyrazol-4-yl]phenyl}-1H-imidazol-2-yl)-2-methylpropan-2-ol] as the compound, how does the melting point read?
Answer: 136 to 140 °C

Question: Which melting point does the source give for Cc1cccc(-c2n[nH]cc2-c2ccc(F)c(-c3cn4c(n3)[S+]([O-])CC4)c2)n1 (stereo not drawn) [Example 211, 6-{2-Fluoro-5-[3-(6-methylpyridin-2-yl)-1H-pyrazol-4-yl]phenyl}-2,3-dihydroimidazo[2,1-b][1,3]thiazole 1-oxide] here?
Answer: 140 to 144 °C

Question: For Cc1cccc(-c2n[nH]cc2-c2ccc(F)c(-c3c[nH]c(CCN4CCOCC4)n3)c2)n1 [Example 213, 4-[2-(4-{2-Fluoro-5-[3-(6-methylpyridin-2-yl)-1H-pyrazol-4-yl]phenyl}-1H-imidazol-2-yl)ethyl]morpholine], which melting point is on record?
Answer: 239 to 240 °C

Question: For Cc1cccc(-c2nc(N)sc2-c2ccc(F)c(-c3ccc(S(C)(=O)=O)cc3)c2)n1 [Example 215, 5-[6-Fluoro-4′-(methylsulfonyl)-1,1′-biphenyl-3-yl]-4-(6-methylpyridin-2-yl)-1,3-thiazol-2-amine], which melting point is on record?
Answer: 202 to 204 °C

Question: For Cc1cccc(-c2nc(N)sc2-c2ccc(F)c(-c3ccc(S(N)(=O)=O)cc3)c2)n1 [Example 216, 5′-[2-Amino-4-(6-methylpyridin-2-yl)-1,3-thiazol-5-yl]-2′-fluoro-1,1′-biphenyl-4-sulfonamide], which melting point is on record?
Answer: 190 to 192 °C
